The record followed here is patent US20230210735A1, “PREVENTION, REDUCTION, OR AMELIORATION OF OLD PERSON SMELL” (Firmenich SA, priority 2020, published 2023).

The nature of experiment [1]: POV reduction in model citrus perfume (mixed citrus oil in 90/10 v/v ethanol/water). Particulars: for % POV Reduction: model citrus perfume, vs untreated sample.
The nature of experiment [2]: Aldehyde and ketone reaction products by HPLC with DNPH derivatization in a soap formulation. The settings on record: treated vs untreated soap, peak area. How it is done:
The extent of rancidity in the soap formulation tested was determined by measuring the content of aldehyde and ketone reaction products of the soap oils present. DNPH derivatives of aldehydes/ketone products in soap and treated soap were synthesized as follows:
0.1000 g of a soap formulation, either treated or untreated with DiMeC10A-PhPA were separately measured and diluted to 12 mL by the addition of propan-2-ol. 1 mL of this prepared diluted mixture was added to 1 mL of diluted DNPH solution which was prepared separately by mixing DNPH (3 g/L) and 3% HCL and diluted into 12 mL by the addition of propan-2-ol. The reaction vial was stirred and kept at 40C for 1 hr to accelerate derivatization reaction. Then it was cooled to room temperature and neutralized with 20% triethylamine and centrifuged at 5000 rpm for 5 min. The sample was then injected into the HPLC column.

Experiment [3] is described as follows: POV by titration in formulated ranch salad dressing. From the text:
Blank Samples: In all of the experiments below, an Untreated Oil (Blank) sample was maintained. The Blank was always packaged, stored, handled, and sampled in exactly the same manner as the Treated Sample, excepting the addition of the 2-oxoacid salt. In this way, the effect of the atmospheric oxygen in the headspace volume would be similar. For example, the ratio of the headspace volume to the volume of oil, and the area of contact between the headspace and the oil surface, would be the same for Treated and Untreated samples.
Into 30 mL glass vial was placed 15 g of a commercial salad dressing that had been stored in the lab at room temperature for an unknown but extended period after opening. To this vial, 0.4002 g of PhPA-DiMeC 10A was added and mixed well. The mixture was allowed to stand on the bench top under ambient laboratory light at room temperature. Periodically, measurements were recorded of the POV by titration, rancid-smelling aldehydes by HPLC with DNPH derivatization (see method above), and sensory evaluation.

Regarding `CN(C)CCO.CN(C)CCO.O=C(O)CCC(=O)C(=O)O` [AKG DiDeanol], in experiment [1] ([…] (24 hours), 1.0% w/v in model perfume), the “POV Treated Perfume” value is listed as 0.0 mmol/L.
For the molecule `CCCCCCCCCCN(C)C.O=C(O)C(=O)Cc1ccccc1` [DiMeC10A-PhPA], in experiment [2], the 2-nonenal % reduction turned out to be 52.4%, the decanal % reduction is recorded as 55.8%, the heptanal % reduction came out at 60% and the hexanal % reduction came to 66.7%. In experiment [2], the nonanal % reduction is reported as 79%, the octanal % reduction was 72.3%, the “retention time 22.9 % reduction” value is given as 51.3% and the “retention time 27.7 % reduction” value is given as 72.7%. Moreover, in experiment [2], the “retention time 29.8 % reduction” value stood at 70.5%, the “retention time 30.6 % reduction” value is 65.5%, the “retention time 31.05 % reduction” value was found to be 68.1% and the “retention time […] reduction” value is listed as 63.3%. For the same molecule, in experiment [3] (50 mins since addition), the “% of reduction in POV” value is given as 0%. Also, the “% of reduction in POV” value in experiment [3] (6 hrs since addition) came out at 53%. Also, in experiment [3] (26 hrs since addition), the “% of reduction in POV” value amounted to 62%.
With `CCC(CC)(C(=O)[O-])C(=O)C(=O)O.[Na+]` [Diethyloxaloacetate, Sodium Salt], the entries for the “% POV Reduction” value in experiment [1] (165 Minutes after addition of treating compound) and in experiment [1] (24 hours after addition of treating compound) were 36.9% and 92.7%, respectively.
